Common to all, as to test: Bead competition binding assay, immobilized compound A, K-562, HL-60 and Jurkat nuclear lysates
Settings in all cases: 100 µM free compound A, read-out: Fold change versus DMSO control

One test has as its target T1, EGLN1 (Homo sapiens, UniProt Q9GZT9).
T1 construct: endogenous in cells
An excerpt: (§1) K562 cells were also purchased from DSMZ (Braunschweig, Germany).
(§2) Table 5: Peptide elution off the LC system

The target of the next test is T2, PLOD1 (Homo sapiens, UniProt Q02809).
T2 construct: capturing and identification of dioxygenases from nuclear protein extracts; endogenous in cells
T2 sequence (Q02809 19-727): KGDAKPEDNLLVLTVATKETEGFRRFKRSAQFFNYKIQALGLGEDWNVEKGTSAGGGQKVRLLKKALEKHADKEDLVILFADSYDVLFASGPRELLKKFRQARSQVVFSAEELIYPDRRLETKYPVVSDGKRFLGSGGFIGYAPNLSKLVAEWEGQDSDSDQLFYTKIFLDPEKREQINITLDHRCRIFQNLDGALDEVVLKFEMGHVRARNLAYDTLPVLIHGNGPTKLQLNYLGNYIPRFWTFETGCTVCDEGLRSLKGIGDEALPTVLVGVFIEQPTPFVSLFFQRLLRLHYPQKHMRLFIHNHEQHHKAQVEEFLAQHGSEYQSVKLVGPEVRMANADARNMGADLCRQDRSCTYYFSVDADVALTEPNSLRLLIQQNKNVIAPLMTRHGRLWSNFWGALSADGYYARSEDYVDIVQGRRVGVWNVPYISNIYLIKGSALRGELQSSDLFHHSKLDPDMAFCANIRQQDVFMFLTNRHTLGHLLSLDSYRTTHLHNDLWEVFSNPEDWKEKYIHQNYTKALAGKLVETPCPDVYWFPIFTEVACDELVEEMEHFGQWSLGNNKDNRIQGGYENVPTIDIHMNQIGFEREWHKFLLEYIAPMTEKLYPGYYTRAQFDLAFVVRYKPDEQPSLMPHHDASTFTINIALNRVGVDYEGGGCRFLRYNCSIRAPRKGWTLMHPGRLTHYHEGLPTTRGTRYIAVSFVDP
Description: as §1, §2

The target of a further test is T3, PLOD3 (Homo sapiens, UniProt O60568).
T3 construct: capturing and identification of dioxygenases from nuclear protein extracts; endogenous in cells
T3 sequence (O60568 25-738): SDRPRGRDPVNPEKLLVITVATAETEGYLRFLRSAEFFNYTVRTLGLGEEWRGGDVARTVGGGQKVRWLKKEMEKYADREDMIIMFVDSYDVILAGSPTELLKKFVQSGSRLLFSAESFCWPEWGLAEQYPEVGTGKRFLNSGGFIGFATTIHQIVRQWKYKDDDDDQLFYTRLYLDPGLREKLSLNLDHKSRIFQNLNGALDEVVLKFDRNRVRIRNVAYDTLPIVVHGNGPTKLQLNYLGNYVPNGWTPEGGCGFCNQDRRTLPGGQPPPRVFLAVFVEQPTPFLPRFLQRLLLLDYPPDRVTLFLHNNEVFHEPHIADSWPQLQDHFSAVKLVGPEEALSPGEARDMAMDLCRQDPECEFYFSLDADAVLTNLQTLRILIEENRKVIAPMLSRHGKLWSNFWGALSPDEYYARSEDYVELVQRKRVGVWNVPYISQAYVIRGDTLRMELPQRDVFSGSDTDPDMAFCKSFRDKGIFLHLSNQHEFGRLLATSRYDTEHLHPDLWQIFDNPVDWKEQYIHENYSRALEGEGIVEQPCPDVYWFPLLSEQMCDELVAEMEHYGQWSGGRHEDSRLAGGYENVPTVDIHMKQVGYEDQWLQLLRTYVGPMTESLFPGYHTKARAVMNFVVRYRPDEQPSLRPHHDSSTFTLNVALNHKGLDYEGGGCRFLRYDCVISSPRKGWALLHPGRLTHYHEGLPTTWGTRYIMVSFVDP
Description: as §1, §2

A further test deals with T4, OGFOD1 (Homo sapiens, UniProt Q8N543).
T4 construct: capturing and identification of dioxygenases from nuclear protein extracts; endogenous in cells
Description: as §1, §2
(§3) Seventeen different dioxygenases were identified.

The target in a further test is T5, PLOD2 (Homo sapiens, UniProt O00469).
T5 construct: capturing and identification of dioxygenases from nuclear lysates of three different cell lines; endogenous in cells; host or cells: K-562, HL-60 and Jurkat nuclear lysates
T5 sequence (O00469 26-737): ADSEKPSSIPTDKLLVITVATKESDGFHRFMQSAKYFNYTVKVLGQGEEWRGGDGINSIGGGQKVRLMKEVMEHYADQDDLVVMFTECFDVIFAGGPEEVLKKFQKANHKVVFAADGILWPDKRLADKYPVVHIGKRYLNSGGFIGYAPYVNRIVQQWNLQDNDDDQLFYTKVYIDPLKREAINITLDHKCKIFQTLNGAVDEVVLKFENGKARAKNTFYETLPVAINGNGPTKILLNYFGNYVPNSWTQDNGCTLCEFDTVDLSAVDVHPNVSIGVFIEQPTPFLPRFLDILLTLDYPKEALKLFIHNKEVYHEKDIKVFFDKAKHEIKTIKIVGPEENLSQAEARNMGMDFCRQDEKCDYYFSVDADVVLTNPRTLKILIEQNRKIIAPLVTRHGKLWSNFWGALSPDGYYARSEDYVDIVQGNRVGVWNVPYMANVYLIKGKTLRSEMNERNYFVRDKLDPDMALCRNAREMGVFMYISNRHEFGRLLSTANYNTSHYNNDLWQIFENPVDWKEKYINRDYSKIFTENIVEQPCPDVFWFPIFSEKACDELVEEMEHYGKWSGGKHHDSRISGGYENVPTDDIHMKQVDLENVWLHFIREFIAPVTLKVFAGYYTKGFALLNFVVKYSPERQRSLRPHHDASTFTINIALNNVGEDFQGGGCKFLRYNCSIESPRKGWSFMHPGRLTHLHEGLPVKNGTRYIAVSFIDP
Description: as §1, §2, §3

Structures are written as SMILES. Counter-ions that a name gives are not always drawn. Like-named read-outs stand apart in the source and are kept apart here.

T4 sequence (Q8N543 whole entry): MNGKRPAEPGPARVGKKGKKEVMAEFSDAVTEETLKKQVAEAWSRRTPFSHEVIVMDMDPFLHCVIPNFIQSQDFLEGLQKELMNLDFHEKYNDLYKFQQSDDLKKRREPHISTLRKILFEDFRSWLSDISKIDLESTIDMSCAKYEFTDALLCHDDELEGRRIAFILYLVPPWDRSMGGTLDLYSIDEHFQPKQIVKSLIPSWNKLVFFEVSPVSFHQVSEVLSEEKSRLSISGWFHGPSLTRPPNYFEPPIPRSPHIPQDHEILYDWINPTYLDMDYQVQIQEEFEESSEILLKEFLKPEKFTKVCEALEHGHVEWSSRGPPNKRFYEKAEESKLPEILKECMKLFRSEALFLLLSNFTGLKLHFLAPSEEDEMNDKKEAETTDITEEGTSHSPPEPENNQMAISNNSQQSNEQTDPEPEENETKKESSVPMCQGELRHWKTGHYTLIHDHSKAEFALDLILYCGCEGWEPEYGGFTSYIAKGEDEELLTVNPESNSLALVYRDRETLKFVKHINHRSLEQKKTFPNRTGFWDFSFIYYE
T1 sequence (Q9GZT9 whole entry): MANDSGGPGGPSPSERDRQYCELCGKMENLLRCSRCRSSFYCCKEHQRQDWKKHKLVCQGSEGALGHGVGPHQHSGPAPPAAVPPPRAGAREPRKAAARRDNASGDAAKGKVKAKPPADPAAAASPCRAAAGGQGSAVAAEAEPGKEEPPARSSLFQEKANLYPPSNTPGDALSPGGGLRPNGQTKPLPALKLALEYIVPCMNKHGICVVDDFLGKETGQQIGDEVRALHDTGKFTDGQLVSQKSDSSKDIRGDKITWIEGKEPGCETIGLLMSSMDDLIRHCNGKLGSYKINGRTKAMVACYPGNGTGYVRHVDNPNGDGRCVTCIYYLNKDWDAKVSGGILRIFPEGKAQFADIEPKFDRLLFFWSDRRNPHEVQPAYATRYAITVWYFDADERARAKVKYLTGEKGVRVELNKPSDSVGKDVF

`O=C(O)CNC(=O)C1C(=O)OC2(CCNCC2)OC1=O` [compound A, 2-(2,4-dioxo-1,5-dioxa-9-azaspiro[5.5]undecane-3-carboxamido)acetic acid hydrochloride]: the remaining binding at 100 µM on EGLN1 (HL-60 nuclear lysate) came to 24%; on EGLN1 (Jurkat nuclear lysate) it was 13%; on PLOD1 (Jurkat nuclear lysate), 91%; on PLOD1 (K-562 nuclear lysate), 35%; on PLOD3 (Jurkat nuclear lysate), 161%; on PLOD3 (K-562 nuclear lysate) it was 52%. The remaining binding at 100 µM on OGFOD1 (HL-60 nuclear lysate) amounted to 50%; at OGFOD1 (Jurkat nuclear lysate) it was 30%; on OGFOD1 (K-562 nuclear lysate), 19%; at PLOD2 (HL-60 nuclear lysate), 86%; at PLOD2 (Jurkat nuclear lysate), 109%; at PLOD2 (K-562 nuclear lysate), 54%.

The values are drawn from patent publication EP2505659A1, “Methods for the identification of dioxygenase interacting molecules and for the purification of dioxygenase proteins” (CELLZOME AG, priority 2011, dated 2012).
